Publication PMC10722540, “Red Wine Inspired Chemistry: Hemisynthesis of Procyanidin Analogs and Determination of Their Protein Precipitation Capacity, Octanol–Water Partition, and Stability in Phosphate-Buffered Saline” (Journal of Agricultural and Food Chemistry, 2023)

What was measured:
[1] = target: T1, bovine serum albumin (BSA) (Bos taurus, UniProt P02769); assay: Protein precipitation capacity (PPC), turbidimetric well-plate reader assay with BSA, log-normal dose–response model; format: biochemical; conditions: SE in parentheses
T1 construct: purchased Sigma-Aldrich (MO, USA)
T1 sequence (P02769 25-607): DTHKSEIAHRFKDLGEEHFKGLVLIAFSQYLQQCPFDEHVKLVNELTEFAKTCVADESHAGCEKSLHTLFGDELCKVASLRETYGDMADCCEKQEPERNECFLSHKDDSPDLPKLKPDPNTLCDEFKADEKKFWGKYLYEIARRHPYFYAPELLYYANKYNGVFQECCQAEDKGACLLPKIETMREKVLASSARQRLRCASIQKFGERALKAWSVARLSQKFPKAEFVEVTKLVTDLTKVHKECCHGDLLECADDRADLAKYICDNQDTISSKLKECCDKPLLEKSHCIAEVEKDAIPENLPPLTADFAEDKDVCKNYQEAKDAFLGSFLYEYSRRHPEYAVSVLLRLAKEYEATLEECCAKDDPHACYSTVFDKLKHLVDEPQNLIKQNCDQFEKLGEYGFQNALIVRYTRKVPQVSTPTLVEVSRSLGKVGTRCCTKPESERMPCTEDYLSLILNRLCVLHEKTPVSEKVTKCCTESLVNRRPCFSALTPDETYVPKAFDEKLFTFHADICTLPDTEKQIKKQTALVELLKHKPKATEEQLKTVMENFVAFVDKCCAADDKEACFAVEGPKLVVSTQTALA
Experimental: (§1) PPC was measured by using the turbidimetric well-plate reader assay of Engström et al. (2019), with few modifications to the volumes of the reactants and to the number of replicates, for instance. The analyzes of the supernatants were done following Engström et al. (2022).[21] Briefly, 75 μL of BSA solution and 75 μL of the solutions of compounds 2–14 were pipetted to well plates, and the intensity of the forming haze was measured periodically at 420 nm using a well-plate reader. The PPC of the PC analogue 1 was not measured because it was not soluble in suitable solvents. The reactions were monitored for 30 min, and the highest intensities were recorded. A single background measurement was done at each concentration with all the components in the wells but the BSA. The reactions were done in triplicates (and in duplicates with PC C1), and the concentrations of the compounds 2–14 in the reaction mixtures were 0.25 0.65, 1.05, 1.45, 1.85, and 2.25 mM. The concentration of the BSA was kept constant at 0.1 mM. Therefore, the tested molar ratios to BSA were 2.5:1, 6.5:1, 10.5:1, 14.5:1, 18.5:1, and 22.5:1. After the 30 min, the supernatants and precipitates of the replicates were combined in a 1.5 mL Eppendorf tube and separated by centrifuging. The supernatants were then analyzed by UPLC–DAD using the shorter phenyl column (section 2.4) to quantify the leftover compounds 2–14 and BSA. Leftover BSA was quantified using a separately prepared linear calibration curve (1–125 μM), and the compounds 2–14 were quantified by analyzing the background solutions from the well-plate reader assay and constructing a calibration curve from these analyzes. BSA was quantified at 280 nm and compounds 2–14 at 280–320 nm. The wavelength of maximal UV absorption for compounds 2–14 could not be utilized in quantification because the diode array detector was saturated at the optimal wavelengths due to the high concentrations used in the well-plate reader assay. Therefore, off-optimal wavelengths were chosen for quantification separately for each compound 2–14 to reduce intensities and to obtain linear fits for calibration curves.
All statistical analyzed were performed with R (version 4.2.2) in the integrated development environment Rstudio (version 2022.12.0.353).[23],[24] The PPC data was fitted with a dose–response model using the package drc.[25] Various models, e.g., logit and log-normal models, were compared using the mselect function, and the best fitting model was chosen based on the Akaike’s information criterion and residual error when comparing all models, and log-likelihood was used when comparing nested models. All compounds were assumed to have the same upper and lower asymptotes; the former was estimated from the experimental data, and the latter was fixed at zero.

[2] = Octanol–water partition, shake-flask method; format: physicochemical; conditions: 200 μM, n-octanol/water, 2 h mixing, SE in parentheses
Experimental: The shake-flask method was done using 2 mL Eppendorf tubes and three replicates. […] After mixing, aliquots of 500 μL were transferred to new Eppendorf tubes, and 500 μL of n-octanol was added that had been saturated with water. The solvent systems were mixed in a vortex mixer for 2 h, and then both the water and the n-octanol layers as well as the initial water solution were analyzed by UPLC–DAD using the shorter phenyl column (section 2.4). The chromatograms were integrated using TargetLynx software (version 4.2), and the octanol–water partition coefficient, log P, was calculated as the log10 of the ratio of area in n-octanol phase to the area in water phase. Recovery % was calculated by summing the areas in both phases and dividing the summation with the area measured from the initial water phase.

[3] = Stability in phosphate buffered saline; format: physicochemical; conditions: phosphate buffered saline, pH 7.4, PBS pH 7.4, 0.01 M phosphate, 150 μM, first-order kinetics, UV 280 nm; read-out: half-life (t1/2)
Experimental: The stabilities of the compounds were measured in PBS, which was prepared from commercially available tablets that were dissolved in ultrapure water. The phosphate concentration was 0.01 M, the pH was 7.4, and the potassium and sodium chloride concentrations were 0.0027 and 0.137 M, respectively. […] The compounds were dissolved in 2 mL of the PBS solution in Eppendorf tubes, vortexed for approximately 15 min, and filtered through a 0.2 μm PTFE filter to a 2 mL UPLC vial. The solutions were analyzed with the UPLC-DAD-HESI-Orbitrap-MS instrument using the longer phenyl column (section 2.4), and repeated injections were done every 47.5 min for approximately 12 h. […] The UV chromatograms at 280 nm were integrated using the QuanBrowser module in Xcalibur software (version 4.1.31.9), and the main degradation products were identified in QualBrowser by their high-resolution mass spectra and UV spectra. With each compound, the measured areas were transformed to proportional areas by dividing all areas with the initial area in the first injection of the time series, and the data was further loge transformed and fitted with first-order linear regression curves. The regression curves were supplemented with 95% confidence intervals to visualize the uncertainty in the fitted curves. The half-lives were calculated from the slope (k) parameters of the linear regression model using the following equation: [drawing 1]

[4] = target: T1, bovine serum albumin (BSA); assay: UPLC–DAD analysis of supernatants from the PPC experiment (proportion of precipitated BSA); format: biochemical; conditions: highest tested concentration of 2.25 mM (molar ratio to BSA 23:1)
Experimental: as §1

O=C(O[C@@H]1Cc2c(O)cc(O)cc2O[C@@H]1c1cc(O)c(O)c(O)c1)c1cc(O)c(O)c(O)c1 [Compound 14, Epigallocatechin-3-gallate, reference compound]
ED90 (mM) ([1]; BSA 0.1 mM): 1.76 (0.06) mM
EC50 ([1]; concentration giving 50% of maximal absorbance (420 nm haze), BSA 0.1 mM, read-out: ED50 (the source's name)): 890 µM
slope ([1]; slope parameter of log-normal dose–response model): 1.88 (0.07)
KOW [2]: 13.58 (0.06)
logP at 2 h ([2]; read-out: log P (log10KOW)): 1.13
half-life at 150 μM [3]: 1.4 h
proportion of BSA precipitated [4]: almost all
